Assay results taken from patent US9096689B2, “Methods and compositions for inhibiting angiogenesis” (NORTHWESTERN UNIVERSITY, priority 2007, dated 2015).
Entries after “also recorded” stand apart in the source; their conditions may differ.

How the values were obtained:
[1] = tested on: Human microvascular endothelial cells; assay: endothelial cell apoptosis assay (ApopTag / TUNEL); type: cell-based; details: for induction of endothelial cell apoptosis: HMVEC, overnight, low serum media, with or without bFGF, FIG. 4
Protocol: Confluent HMVEC cells growing on coverslips were incubated overnight in low serum media (0.2% FBS in MCDB)±PEDF peptides in the presence or absence of bFGF. ApopTag Fluorescein kit (Chemicon) was used to determine apoptotic cells. […] 3-5 fields (10×) were analyzed with epi-fluorescent microscope, and cells were counted using MetaMorph software. Apoptotic (FITC positive) cells were calculated as a % of total cells stained with PI per field.
The ability of the 34-mer fragments to induce endothelial cell apoptosis was next measured (FIG. 4).
In further experiments, human microvascular endothelial cells were treated with PEDF18 (SEQ ID NO:2) and PEDF11 (SEQ ID NO:102). Apoptosis was measured after 24 hours with terminal dUTP Nick-end Labeling (TUNEL) assay. […] It is noted that one advantage of PEDF11 over longer PEDF derivatives is in that this sequence is below critical length so it can be non-immunogenic during continuous applications.

[2] = tested on: Mouse renal carcinoma cells (Renca, ATCC); assay: orthotopic renal cell carcinoma xenograft model (tumor growth and metastases); type: in vivo
Protocol: Mouse renal carcinoma cells (Renca, ATCC) were injected under the kidney capsule (0.5×10^6/site). Animals were randomly divided into 6 groups (8 per group) and the treatment started 5 days after inoculation (intraperitoneal injections). The following treatment groups were included: P18 (SEQ ID NO:2; 10 mg/kg); P18 (60 mg/kg); Rapamycin (R, 0.5 mg/kg); R+P18 (10 mg/kg) and R+P18 (60 mg/kg). The control group was treated with scrambled peptide, YFNGRSSPSNTNTYYVDRL (SEQ ID NO:51). After 17 days of treatment both kidneys were removed. To assess tumor growth, the weight of healthy kidney was subtracted from the weight of tumor-inoculated kidney, for each animal. The difference represents the weight of the tumor.
Metastases formation was also examined in the liver and lungs of the in the control treated animals and the groups treated with P18 and scrambled peptide (FIG. 9). The % affected organs is indicated under the representative images.

[3] = tested on: choroidal neovascularization; assay: laser-induced choroidal neovascularization (CNV) mouse model; type: in vivo, mice
Protocol: This Example describes further characterization of P18 (PEDF18) and fragments thereof. […] Intravitreous injections of 1 μg (n=24), 10 μg (n=24) of PEDF18, or vehicle (n=21) were given at the day of laser photocoagulation-induced rupture of Bruch's membrane. Two weeks after laser induction, mice were euthanized and the area of CNV was measured. […] NV=neovascularization.

[4] = tested on: angiogenesis; assay: directed in vivo angiogenesis assay (DIVAA), s.c. matrigel angioreactors; parameters: species or system nude mice; details: for anti-angiogenic effect in DIVAA: bFGF 37.5 and VEGF 12.5 ng/ml, day 7
Protocol: FIGS. 5A and 5B show the results of a corneal angiogenesis assay. The 34 mer and 18-mer peptides were incorporated with bFGF (50 ng/pellet) into slow-release sucralfate pellets, which were surgically implanted into the cornea of anesthetized mice, 0.5-1 mm from the vascular limbus. The responses were scored on day 5 post implantation and the ingrowth of blood vessels from the cornea to the pellet was considered a positive response. The responses were scored as positive corneas of total implanted: statistical significance was evaluated with Fisher's Exact test. P<0.05 was considered significant. […] The peptides were incorporated with a mix of bFGF and VEGF (37.5 and 12.5 ng/ml, respectively) into angioreactors filled with matrigel. The reactors were implanted s.c onto the flanks of the nude mice. On day 7, The reactors were harvested and photographed (5C). Endothelial cells collected from implants by dilution/centrifugation, stained with FITC-lectin and quantified by flow cytometry (5D).
Finally, the peptides were tested in vivo, in the corneal angiogenesis and directed in vivo angiogenesis assay (DIVAA). The 34-mer derivatives were compared in vivo with parental PEDF peptide, the 34-mer. FIG. 5 A, B: Corneal angiogenesis assay: the peptides were incorporated with bFGF (50 ng/pellet) into slow-release sucralfate pellets, which were surgically implanted into the cornea of anesthetized mice, 0.5-1 mm from the vascular limbus. The responses were scored on day 5 post implantation and the ingrowth of blood vessels from the cornea to the pellet was considered a positive response. The responses were scored as positive corneas of total implanted: statistical significance was evaluated with Fisher's Exact test. P<0.05 was considered significant. […] 5C, D. DIVAA of the 34-mer and derivative peptides. The peptides were incorporated with a mix of bFGF and VEGF (37.5 and 12.5 ng/ml, respectively) into angioreactors filled with matrigel. The reactors were implanted s.c onto the flanks of the nude mice. On day 7, the reactors were harvested and photographed (5C). Endothelial cells collected from implants by dilution/centrifugation, stained with FITC-lectin and quantified by flow cytometry (5D).

[5] = tested on: corneal angiogenesis; assay: corneal angiogenesis assay; type: in vivo, mice; details: bFGF 50 ng/pellet; scored day 5
Protocol: FIGS. 5A and 5B show the results of a corneal angiogenesis assay. The 34 mer and 18-mer peptides were incorporated with bFGF (50 ng/pellet) into slow-release sucralfate pellets, which were surgically implanted into the cornea of anesthetized mice, 0.5-1 mm from the vascular limbus. The responses were scored on day 5 post implantation and the ingrowth of blood vessels from the cornea to the pellet was considered a positive response. The responses were scored as positive corneas of total implanted: statistical significance was evaluated with Fisher's Exact test. P<0.05 was considered significant. […] Endothelial cells collected from implants by dilution/centrifugation, stained with FITC-lectin and quantified by flow cytometry (5D).
Finally, the peptides were tested in vivo, in the corneal angiogenesis and directed in vivo angiogenesis assay (DIVAA). […] The responses were scored on day 5 post implantation and the ingrowth of blood vessels from the cornea to the pellet was considered a positive response. The responses were scored as positive corneas of total implanted: statistical significance was evaluated with Fisher's Exact test. […] Endothelial cells collected from implants by dilution/centrifugation, stained with FITC-lectin and quantified by flow cytometry (5D).

[6] = tested on: Human microvascular endothelial cells; assay: endothelial cell chemotaxis assay (bFGF-induced migration); type: cell-based; details: for inhibition of bFGF-induced migration (chemotaxis): peptide at increasing concentrations; for inhibitor activity on bFGF-induced migration compared with native PEDF: vs rhPEDF at 20 nM
Protocol: The initial testing was done in the endothelial cell chemotaxis assay. Human microvascular endothelial cells to traverse gelatinized microporous membrane up the gradient of bFGF was tested in the absence and in the presence of the 14-, 18- and 23-mer peptides (FIG. 3). Human microvascular endothelial cells were plated on the lower side of gelatinized microporous membrane and allowed to adhere. The peptides (14-, 18 and 23-mer) were added at increasing concentrations to the opposite side of the gelatinized microporous membrane ([…]), alone, or in combination with basic fibroblast growth factor (bFGF, 10 ng/ml). The cells migratied to the opposite side of the membrane were counted in 10 high-powered (100×) fields. Every condition was tested in quadruplicate. bFGF-induced chemotaxis is shown (top line in each graph). Basal migration levels (0.1% bovine serum albumin) are indicated with the dotted line. Triangles (▴) show peptide alone; while squares (▪) show peptide with bFGF. The solid line (below the top line mentioned above) indicates the effect of the recombinant human PEDF (rhPEDF) at 20 nM.
Several truncated variants of P18 (SEQ ID NO:2) were generated, including an 11-mer (NFGYDLYRVRS; SEQ ID NO:102) which has the first 11 bases of P18, and an 8-mer, (NFGYDLYR; SEQ ID NO:119), which has the first 8 bases of P18. These variants were screened in endothelial cell apoptosis and chemotaxis assays, seeking those that inhibit chemotaxis and induce apoptosis with specific activity similar or better than that of P18. In particular, microvascular endothelial cells were plated in inverted modified Boyden chambers, and chemotaxis induced with bFGF (10 ng/ml). The cells migrated to bFGF were counted in 10 high-powered fields. Results for the 8-mer (SEQ ID NO:119) and the 11-mer (SEQ ID NO:102) are shown in FIGS. 12A and 12B respectively.

[7] = tested on: PC-3 prostate cancer xenografts; assay: tumorigenicity assay, PC-3 xenografts; type: in vivo, nude mice; details: 10 mg/kg, i.p.; for growth of PC-3 prostate cancer xenografts: from day 5 post injection
Protocol: PC-3 cells (2×10^6/site) were implanted into hindquarters of nude mice. On day 5 post injection, treatment was commenced with 34-mer and 18-mer (10 mg/kg, i.p.).

| Substance | induction of endothelial cell apoptosis [1] | anti-angiogenic effect in DIVAA [4] | inhibition of bFGF-induced migration (chemotaxis) ([6]; bFGF 10 ng/ml) | inhibitor activity on bFGF-induced migration compared with native PEDF [6] | growth of PC-3 prostate cancer xenografts [7] | other results |
| --- | --- | --- | --- | --- | --- | --- |
| NFGYDLYRVRSSTSPTTN [18-mer] | more potent than the parental PEDF and as potent as the 34-mer | showed the best anti-angiogenic characteristics | inhibited bFGF-induced migration in a dose-dependent manner | superior to that of native PEDF | significantly inhibited the growth | tumor weight ([2]; P18 alone, i.p., 17 days of treatment, vs scrambled peptide): significant (P<0.0003) decrease in tumor weight; liver metastases ([2]; P18 treatment, FIG. 9): eradicated liver metastases; area of CNV at laser sites ([3]; intravitreous 1 μg or 10 μg, two weeks after laser induction, vs vehicle): significantly smaller areas of neovascularization; choroidal neovascularization (overall effect) ([3]; mouse, laser-induced, listed as PEDF18): suppresses choroidal neovascularization; also recorded: effectively alleviated laser-induced choroidal neovascularization (CNV); blocking of VEGF-induced angiogenesis ([4]; in vitro and in vivo in the subcutaneous matrigel plug assays): effectively blocks VEGF-induced angiogenesis; activity in blocking angiogenesis compared with the 34-mer ([4]; mouse, in vivo): more active in blocking angiogenesis than the original 34-mer; anti-angiogenic effect in corneal angiogenesis assay [5]: showed the best anti-angiogenic characteristics; tumor volume ([7]; FIG. 6): substantial reduction in tumor volume |
| AAAVSNFGYDLYRVRSSTSPTTN [23-mer] | failed to induced apoptosis | failed to inhibit angiogenesis | comparable to PEDF at low concentrations and lost its inhibitory activity at higher doses | – | – | – |
| NFGYDLYRVRS [PEDF11] | – | – | dose-dependent inhibition | – | – | concentration causing EC apoptosis [1]: 10 to 100 nM; concentration at which chemotaxis is inhibited ([6]; bFGF 10 ng/ml, FIG. 12B): 1 to 10 nM; efficacy compared with P18 ([6]; chemotaxis inhibition and EC apoptosis, vs P18 (FIG. 3)): comparable to that of P18 |
| DLYRVRSSTSPTTN [14-mer] | very weak induction of apoptosis | – | inhibited bFGF-induced migration in a dose-dependent manner | superior to that of native PEDF | – | – |
| 34-mer: 34-mer PEDF peptide (amino acids 44-77 at the N-terminus), parental PEDF peptide (DPFFKVPVNKLAAAVSNFGYDLYRVRSSMSPTTN) [reference compound] | – | – | – | – | only marginal effect | – |
